Results published in patent US20220296774A1, “SUPRAMOLECULAR STRUCTURES” (Cellularevolution Limited, priority 2019, published 2022).
No end group written: not given here. C16 = N-terminal C16 lipid

Key:
Assay type in all cases: cell-based
[1] = test system: human adipose-derived mesenchymal stem cells (hASCs); test: Collagen deposited by hASCs (Sirius Red assay); conditions: 7 days in culture, not significant
Experimental: (§1) The amount of collagen deposited by the cells is investigated using the Sirius Red assay (Jimenez et al., 1985). In specific, cells are fixed in 70% ice-cold ethanol and transferred to −80° C. for at least 10 min to ensure the complete fixation of the material. Subsequently, the ethanol solution is removed and each well was gently washed with distilled water. Cells are treated with Sirius-red/picric acid solution (Sigma Aldrich) and incubated overnight at 4° C. with gentle agitation. The following day, any unbound dye is removed and cells were gently rinsed with distilled water. Cells are then treated with 500 μl of 1M NaOH (Fisher Scientific) at room temperature for 10 min under agitation to disperse the solution and 100 μL aliquots of each sample were then transferred in triplicate to a 96 well plate. The total collagen is calculated by comparing the absorbance of the resulting samples at 490 nm, read using either a Multiskan Ascent™ or a Varioskan™ Lux (both from Thermo Fisher Scientific), to that of known standard concentrations of collagen. Each tested condition is performed in triplicate. • 1.5 Atomic Force Microscopy (AFM)
(§2) Moreover, hASCs were also cultured with Lumican or Matrixyl lipopeptides previously solubilised above their c.a.c. in water and then diluted in SFM at the final concentration of 50 μM (FIG. 5).

[2] = test system: immortalized mouse myoblast cell line (C2C12); test: Collagen deposited by C2C12 (Sirius Red assay); conditions: 25 and 50 μM; day 7
Experimental: as §1, with “Each tested condition is performed in triplicate. • 1.5 Atomic Force Microscopy (AFM)” left out
C2C12 were cultured up to 7 days in serum-free medium (SFM) supplemented either with Lumican or Matrixyl or RGDS lipopeptides. […] C2C12 proliferation was evaluated using Alamar Blue assay at day 3 and 7. The amount of deposited collagen was quantified using the Sirius Red assay at day 7.

[3] = test system: immortalized mouse myoblast cell line (C2C12); test: C2C12 proliferation (Alamar Blue); conditions: solubilised in medium; 25 and 50 μM; since day 3
Experimental: (§3) Cell proliferation can be evaluated via Alamar Blue assays, with cell number extrapolated from standard calibration curves using known number of cells for each experiment. Cells are incubated at 37° C. with resazurin reagent at 50 μM (Sigma Aldrich), prepared in 1:10 dilution using fresh culture medium, for […], after which 100 μl of culture supernatants (in triplicate) are sampled for fluorescence emission analysis at 590 nm using either a Fluoroskan Ascent fluorescent spectrophotometer or a Varioskan™ Lux (both from Thermo Scientific). The incubation time differ depending on the experiment and on the cell type. • 1.4 Collagen Deposit Assay
C2C12 were cultured up to 7 days in serum-free medium (SFM) supplemented either with Lumican or Matrixyl or RGDS lipopeptides. Each lipopeptide stock was prepared above its c.a.c. either in serum-free medium (SFM) or in water (H2O). C2C12 proliferation was evaluated using Alamar Blue assay at day 3 and 7. The amount of deposited collagen was quantified using the Sirius Red assay at day 7.

[4] = test system: human adipose-derived mesenchymal stem cells (hASCs); test: hASC proliferation (Alamar Blue); conditions: 50 μM; day 3 and 7; not significant
Experimental: as §3
The hASCs were also cultured with RGDS lipopeptide previously solubilised above its c.a.c. in water and then diluted in SFM at the final concentration of 50 μM (FIG. 4). This was to understand if the different self-assembled structures affected hASCs behaviour as found for human stromal progenitor cell.
as §2

[5] = test system: human stromal progenitor cells; test: Human stromal progenitor cell proliferation (Alamar Blue), lipopeptides as media supplement
Experimental: as §3
(§4) The effect of the different nanostructure on biocompatibility and bioactivity was investigated next. For this study, the lipopeptides were used as a media supplement, rather than coating. The bioactivity of the lipopeptides has been evaluated for three different cell types, namely human stromal progenitor cells, human adipose-derived mesenchymal stem cells (hASCs) and immortalized mouse myoblast cell line (C2C12). • 2.2.1 Effect on Human Stromal Progenitor Cells
(§5) The inventors hypothesised that the effect exerted by the same lipopeptide molecule can be different depending on the solvent in which the self-assembly is initiated. Lumican, Matrixyl and RGDS lipopeptides were investigated as supplements to culture media using stock solutions which were previously self-assembled either in water or in medium. Specifically, cells were cultured for 7 days and proliferation was assessed at day 3 and 7, whereas collagen deposition was analysed at day 7.

[6] = test system: human stromal progenitor cells; test: Collagen deposited by human stromal progenitor cells (Sirius Red assay); conditions: for amount of collagen deposited, higher compared to PA self-assembled in medium: self-assembled in water
Experimental: as §1, §4, §5

**Q.** Which results are given for C16-YEALRVANEVTLN [Lumican lipopeptide]?
**A.** collagen deposited by hASCs ([1]; solubilised in water): slightly increased the collagen deposited; collagen deposited when solubilised in SFM rather than water [2]: significantly increased; cell proliferation [3]: significantly increased cell proliferation; cell proliferation when solubilised in medium rather than water [4]: slightly increase cell proliferation; cell proliferation compared to non-supplemented SFM ([5]; self-assembled in medium, 12 and 25 μM): slightly increased cell proliferation only up to day 3; cell proliferation compared to non-supplemented serum free medium (SFM) ([5]; self-assembled in water, supplemented at 25 μM and 12 μM, day 3 and 7): significantly increased cell proliferation; collagen deposition compared to the control (SFM) ([6]; independently of the solvent (water or medium) of self-assembly, 7 days): significantly increased collagen deposition; amount of collagen deposited, higher compared to PA self-assembled in medium ([6]; 12 μM, 7 days): 15%; amount of collagen deposited, higher compared to PA self-assembled in medium ([6]; 25 μM, 7 days): ≈ 75%

**Q.** With C16-KTTKS [Matrixyl lipopeptide] as the substance, how does the “collagen deposited by hASCs” value ([1]; solubilised in SFM) read?
**A.** slightly increased the collagen deposited

**Q.** What about the “collagen deposited when solubilised in SFM rather than water” value [2] of the same substance?
**A.** significantly increased

**Q.** And the cell proliferation [3]?
**A.** significantly increased

**Q.** What about the “cell proliferation when solubilised in medium rather than water” value [4] of the same substance?
**A.** slightly increase cell proliferation

**Q.** What about the “cell viability compared to the control” value ([5]; self-assembled in SFM, day 7, both conditions) of the same substance?
**A.** dramatically decreased cell viability

**Q.** What about the “amount of deposited collagen compared to the control” value ([6]; self-assembled in SFM, day 7) of the same substance?
**A.** significantly increased the amount of deposited collagen

**Q.** And the “amount of deposited collagen, higher compared to lipopeptide self-assembled in water” value ([6]; self-assembled in SFM, day 7)?
**A.** 55%
